Measurements reported in patent US5935995A, “Prodrugs for the therapy of tumors and inflammatory disorders” (Heochst Aktiengesellschaft, priority 1996, dated 1999).
Where two headings read alike, the source gives them in different places.

Columns and labels:
LoVo cells = test: Cytotoxicity on LoVo tumor cells in the presence and absence of β-glucuronidase (MTT); type: cell-based
[1] = Stability in solution in anhydrous DMSO; type: physicochemical
Experimental: The prodrug F 373 is stable in solution in anhydrous DMSO. To investigate the cleavability, […] of F 373 solution (5 mg/ml in DMSO) were treated with 180 ml of 0.02 M phosphate buffer pH 7.2 and 10 ml of E. coli β-glucuronidase (Sigma) (330 mg/ml) and the mixture was incubated at 37° C. 25 ml batches were diluted with 225 ml of 0.1 M phosphate buffer pH 3.0 (85%) and acetonitrile (15%) and immediately analyzed with the aid of the following HPLC system.

For `CN(C(=O)Oc1ccc(N(CCCl)CCCl)cc1)c1cc([N+](=O)[O-])ccc1O[C@@H]1O[C@H](C(=O)O)[C@@H](O)[C@H](O)[C@H]1O` [F 373, 2-[N-Methyl-N-[4-(N,N'-bis(2-chloroethyl)amino)phenyloxycarbonyl]-amino]-4-nitrophenyl-β-D-glucuronic acid], which IC50 (LoVo cells; read-out: IC50 with β-gluc.) is on record?
The IC50 was 6.3 µM.

And the IC50 (LoVo cells; read-out: IC50 without β-gluc.)?
The IC50 was > 500 µM.

What about the stability in solution [1] of the same molecule?
Its stability in solution is “stable”.

For `C=CC1CN2CCC1CC2C(OC(=O)N(C)c1cc([N+](=O)[O-])ccc1OC1OC(C(=O)O)C(O)C(O)C1O)c1ccnc2ccc(OC)cc12` (stereo not drawn) [F 391], which IC50 (LoVo cells; Homo sapiens, LoVo, 65 h, read-out: IC50 with β-gluc.) is on record?
The IC50 was 113 µM.

And the IC50 (LoVo cells; Homo sapiens, LoVo, 65 h, read-out: IC50 without β-gluc.)?
The IC50 was > 400 µM.

What does the source list for `CN(C(=O)OCCN(CCO)c1nc(N2CCCCC2)c2nc(N(CCO)CCO)nc(N3CCCCC3)c2n1)c1cc([N+](=O)[O-])ccc1O[C@@H]1O[C@H](C(=O)O)[C@@H](O)[C@H](O)[C@H]1O` [F 392]?
IC50 (LoVo cells; Homo sapiens, LoVo cells, 65 h, with β-glucuronidase (50 mg/mil final concentration), read-out: IC50 with β-gluc.): 49.5 µM; IC50 (LoVo cells; Homo sapiens, LoVo cells, 65 h, without β-glucuronidase, read-out: IC50 without β-gluc.): > 400 µM

For `OCCN(CCO)c1nc(N2CCCCC2)c2nc(N(CCO)CCO)nc(N3CCCCC3)c2n1` [dipyridamole, reference compound], which IC50 (LoVo cells; Homo sapiens, LoVo, parent toxic compound tested alone, read-out: IC50 of the toxic compound tested alone) is on record?
The IC50 was 43 µM.

With `C=C[C@H]1C[N@@]2CC[C@H]1C[C@H]2[C@H](O)c1ccnc2ccc(OC)cc12` [quinine, reference compound] as the molecule, how does the IC50 (LoVo cells; Homo sapiens, LoVo, read-out: IC50 of the toxic compound tested alone) read?
The IC50 was 103 µM.
